Assay results published in US7884099B2 (priority 2007, dated 2011).
In brackets after ≈: the same amount, converted by molar mass. Read-outs that look alike come from different tables or passages of the source.

Columns and labels:
[1] = system: Staphylococcus aureus ATCC 29213; assay: MIC by microbroth dilution, S. aureus ATCC 29213; type: cell-based
Method: (§1) Representative compounds are assayed for antimicrobial activity as follows: Minimum Inhibitory Concentrations (MICs) against Staphylococcus aureus ATCC 29213, its isogenic derivative, and Escherichia coli ATCC 25922 were determined by the microbroth dilution method, as per NCCLS guidelines (National Committee for Clinical Laboratory Standards 2000).

[2] = system: Escherichia coli ATCC 25922; assay: MIC by microbroth dilution, E. coli ATCC 25922; type: cell-based
Method: as §1

[3] = system: S. aureus rpoB^H481Y gyrA^S84L parC^S80F; assay: MIC by microbroth dilution, triple mutant S. aureus; type: cell-based; settings: Staphylococcus aureus, read-out: MIC S. aureus rpoB^H481Y gyrA^S84L parC^S80F
Method: as §1

[4] = system: S. aureus rpoB^H481Y; assay: MIC by microbroth dilution, rifamycin-resistant S. aureus rpoB H481Y; type: cell-based, Staphylococcus aureus; settings: for MIC: Staphylococcus aureus, read-out: MIC S. aureus rpoB^H481Y
Method: as §1

[5] = system: S. aureus gyrA^S84L parC^S80F; assay: MIC by microbroth dilution, quinolone-resistant S. aureus gyrA S84L parC S80F; type: cell-based, Staphylococcus aureus; settings: for MIC: Staphylococcus aureus, read-out: MIC S. aureus gyrA^S84L parC^S80F
Method: as §1

[6] = system: Wild-type and Genetically-Defined Resistant Strains of Bacteria; assay: Antibacterial activity against wild-type and genetically-defined resistant strains (overall statement on Table 1); type: cell-based; settings: summary of Table 1
Method: as §1

[7] = ATCC29213, read-out: MIC S. aureus ATCC# 29213
[8] = ATCC25922, read-out: MIC E. coli ATCC# 25922
[9] = ATCC29213, wild-type, microbroth dilution, NCCLS, read-out: MIC S. aureus ATCC# 29213
[10] = ATCC25922, microbroth dilution, NCCLS, read-out: MIC E. coli ATCC# 25922

Work on `CO[C@H]1/C=C/O[C@@]2(C)Oc3c(C)c(O)c4c(=O)c(c5oc6cc(N7CCC(N(C)C8([C@@H]9CCN(c%10c(F)cn%11c(=O)c(C(=O)O)cc(C%12CC%12)c%11c%10C)C9)CC8)CC7)cc(O)c6nc-5c4c3C2=O)NC(=O)/C(C)=C\C=C\[C@H](C)[C@H](O)[C@@H](C)[C@@H](O)[C@@H](C)[C@H](OC(C)=O)[C@@H]1C` [Example 1] yielded an MIC [1, 7] of less than 0.004 µg/mL, an MIC [2, 8] of 0.5 µg/mL (≈ 0.39 µM) and an MIC [3] of 2 µg/mL (≈ 1.56 µM). For the same compound, the MIC [4] was 0.12 µg/mL (≈ 0.0936 µM) and the MIC [5] was less than 0.004 µg/mL.
Compound `COc1c(N2CC[C@@H](C3(N(C)C4CCN(c5cc(O)c6nc7c8c9c%10c(C)c(O)c8c(=O)c(c-7oc6c5)NC(=O)/C(C)=C\C=C\[C@H](C)[C@H](O)[C@@H](C)[C@@H](O)[C@@H](C)[C@H](OC(C)=O)[C@H](C)[C@@H](OC)/C=C/O[C@@](C)(O%10)C9=O)CC4)CC3)C2)c(F)cc2c(=O)c(C(=O)O)cn(C3CC3)c12` [Example 2, (R)-5′-[4-[1-[1-(3-Carboxy-1-cyclopropyl-6-fluoro-8-methoxy-4-oxo-1,4-dihydro-quinoline-7-yl)-pyrrolidin-3-yl-cyclopropyl-methyl]-amino]-piperidin-1-yl]-3′-hydroxy-benzoxazinorifamycin] has an MIC [1, 7] of 0.008 µg/mL (≈ 0.00617 µM), an MIC [2, 8] of 4 µg/mL (≈ 3.08 µM) and an MIC [3] of 4 µg/mL (≈ 3.08 µM). For the same compound, the “antibacterial activity (in words)” value [6] was “potent antibacterial activity”, the MIC [4] was 0.5 µg/mL (≈ 0.385 µM) and the MIC [5] was 0.016 µg/mL (≈ 0.0123 µM).
With `CO[C@H]1/C=C/O[C@@]2(C)Oc3c(C)c(O)c4c(O)c(c(/C=N/N5CCN(C)CC5)c(O)c4c3C2=O)NC(=O)/C(C)=C\C=C\[C@H](C)[C@H](O)[C@@H](C)[C@@H](O)[C@@H](C)[C@H](OC(C)=O)[C@@H]1C` [rifampin, reference compound] the MIC [1, 9] was 0.008 µg/mL (≈ 0.00972 µM), the MIC [2, 10] was 8 µg/mL (≈ 9.72 µM) and the MIC [3] was greater than 64 µg/mL. The MIC [4] was greater than 64 µg/mL, the “activity against rifamycin-resistant S. aureus rpoB^H481Y (in words)” value ([4]; mutation in RNA polymerase) was “not as effective” and the MIC [5] was 0.008 µg/mL (≈ 0.00972 µM).
Compound `O=C(O)c1cn(C2CC2)c2cc(N3CCNCC3)c(F)cc2c1=O` [ciprofloxacin, reference compound] has an MIC [1, 9] of 0.24 µg/mL (≈ 0.724 µM), an MIC [2, 10] of 0.008 µg/mL (≈ 0.0241 µM) and an MIC [3] greater than 32 µg/mL. For the same compound, the MIC [4] was 0.24 µg/mL (≈ 0.724 µM), the MIC [5] was greater than 32 µg/mL and the “activity against quinolone-resistant S. aureus gyrA^S84L parC^S80F (in words)” value ([5]; mutations in gyrase and topoisomerase IV) was “not as effective”.
With `COc1c(N2CCN(c3cc(O)c4nc5c6c7c8c(C)c(O)c6c(=O)c(c-5oc4c3)NC(=O)/C(C)=C\C=C\[C@H](C)[C@H](O)[C@@H](C)[C@@H](O)[C@@H](C)[C@H](OC(C)=O)[C@H](C)[C@@H](OC)/C=C/O[C@@](C)(O8)C7=O)CC2)c(F)cc2c(=O)c(C(=O)O)cn(C3CC3)c12` [Example 3, 5′-[4-(3-Carboxy-1-cyclopropyl-6-fluoro-8-methoxy-4-oxo-1,4-dihydroquinolin-7-yl)-piperazin-1-yl]-3′-hydroxy-benzoxazinorifamycin] the MIC [1, 7] was 0.008 µg/mL (≈ 0.0069 µM), the MIC [2, 8] was 4 µg/mL (≈ 3.45 µM) and the MIC [3] was 8 µg/mL (≈ 6.9 µM). The “antibacterial activity (in words)” value [6] was “potent antibacterial activity”, the MIC [4] was 0.24 µg/mL (≈ 0.207 µM) and the MIC [5] was 0.008 µg/mL (≈ 0.0069 µM).
